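Grown in 96-well plates, cells were treated for 48 hours with each compound at five concentrations. Insufficient inhibition: endpoint recorded as highest concentration tested. GI50: concentration for 50% inhibition of growth.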 The source made the active and inactive calls. Cut-off read from the data, not from the text of the source: active = GI50 up to about 1.1 µM and inactive = higher.
What was measured:
Assay in all cases: NCI anticancer screen, dose series, 48 h
RXF 631 = tested on: RXF 631
NCI-H522 = tested on: NCI-H522
HL-60 = tested on: HL-60
M19-MEL = tested on: M19-MEL
OVCAR-8 = tested on: OVCAR-8
EKVX = tested on: EKVX
KM-20L2 = tested on: KM-20L2
OVCAR-4 = tested on: OVCAR-4
SNB-75 = tested on: SNB-75
MOLT-4 = tested on: MOLT-4
NCI-H23 = tested on: NCI-H23
UACC-257 = tested on: UACC-257
UACC-62 = tested on: UACC-62
SF-295 = tested on: SF-295
UO-31 = tested on: UO-31
CCRF-CEM = tested on: CCRF-CEM
A549 = tested on: A549
KM12 = tested on: KM12
HCC 2998 = tested on: HCC 2998
SF-539 = tested on: SF-539
TK-10 = tested on: TK-10
HOP-62 = tested on: HOP-62
M14 = tested on: M14
RXF 393 = tested on: RXF 393
SK-MEL-5 = tested on: SK-MEL-5
HCT-15 = tested on: HCT-15
SR = tested on: SR
IGROV-1 = tested on: IGROV-1
HT-29 = tested on: HT-29
ACHN = tested on: ACHN
U-251 = tested on: U-251
LXFL 529 = tested on: LXFL 529
786-0 = tested on: 786-0
NCI-H226 = tested on: NCI-H226
Malme-3M = tested on: Malme-3M
DLD-1 = tested on: DLD-1
COLO 205 = tested on: COLO 205
SW-620 = tested on: SW-620
SK-OV-3 = tested on: SK-OV-3
CAKI-1 = tested on: CAKI-1
DMS-273 = tested on: DMS-273
SNB-19 = tested on: SNB-19
K562 = tested on: K562
DMS-114 = tested on: DMS-114
RPMI-8226 = tested on: RPMI-8226
LOX IMVI = tested on: LOX IMVI
A498 = tested on: A498
HCT-116 = tested on: HCT-116
SK-MEL-2 = tested on: SK-MEL-2
SN12C = tested on: SN12C
SF-268 = tested on: SF-268
SNB-78 = tested on: SNB-78
XF498 = tested on: XF498
HOP-18 = tested on: HOP-18
HOP-92 = tested on: HOP-92
OVCAR-5 = tested on: OVCAR-5
OVCAR-3 = tested on: OVCAR-3
NCI-H460 = tested on: NCI-H460
SK-MEL-28 = tested on: SK-MEL-28

Measured: GI50

CNS(=O)(=O)NN(C)S(=O)(=O)c1ccc2ccccc2c1
inactive: RXF 631 > 100 µM | NCI-H522 > 100 µM | HL-60 > 100 µM | M19-MEL > 100 µM | OVCAR-8 > 100 µM | EKVX > 100 µM | KM-20L2 > 100 µM | OVCAR-4 > 100 µM | SNB-75 > 100 µM | MOLT-4 > 100 µM | NCI-H23 > 100 µM | UACC-257 > 100 µM | UACC-62 > 100 µM | SF-295 > 100 µM | UO-31 > 100 µM | CCRF-CEM > 100 µM | A549 > 100 µM | KM12 > 100 µM | HCC 2998 > 100 µM | SF-539 > 100 µM | TK-10 > 100 µM | HOP-62 > 100 µM | M14 > 100 µM | RXF 393 > 100 µM | SK-MEL-5 > 100 µM | SR > 100 µM | IGROV-1 > 100 µM | HT-29 > 100 µM | ACHN > 100 µM | U-251 > 100 µM | LXFL 529 > 100 µM | 786-0 > 100 µM | NCI-H226 > 100 µM | Malme-3M > 100 µM | DLD-1 > 100 µM | COLO 205 > 100 µM | SW-620 > 100 µM | SK-OV-3 > 100 µM | CAKI-1 > 100 µM | DMS-273 > 100 µM | SNB-19 > 10 µM | K562 > 100 µM | DMS-114 > 100 µM | RPMI-8226 > 100 µM | LOX IMVI > 100 µM | A498 > 100 µM | HCT-116 > 100 µM | SK-MEL-2 > 100 µM | SN12C > 100 µM
> 100 µM: HCT-15

N#Cc1cccc(NC(=O)c2ccc(C(=O)O)c(C(=O)c3ccc(C(=O)O)c(C(=O)Nc4cccc(C#N)c4)c3)c2)c1
inactive: NCI-H522 > 100 µM | HL-60 > 100 µM | M19-MEL > 100 µM | OVCAR-8 > 100 µM | EKVX > 100 µM | KM-20L2 > 100 µM | OVCAR-4 > 100 µM | SNB-75 > 100 µM | MOLT-4 > 100 µM | NCI-H23 > 100 µM | UACC-257 > 100 µM | UACC-62 > 100 µM | SF-295 > 100 µM | UO-31 > 100 µM | CCRF-CEM > 100 µM | A549 > 100 µM | KM12 > 100 µM | SF-539 > 100 µM | TK-10 > 100 µM | HOP-62 > 100 µM | SF-268 > 100 µM | M14 > 100 µM | RXF 393 > 100 µM | SK-MEL-5 > 100 µM | IGROV-1 > 100 µM | SNB-78 > 100 µM | HT-29 > 100 µM | U-251 > 100 µM | LXFL 529 > 100 µM | 786-0 > 100 µM | XF498 > 100 µM | NCI-H226 > 100 µM | Malme-3M > 100 µM | DLD-1 > 100 µM | COLO 205 > 100 µM | HOP-18 > 100 µM | HOP-92 > 100 µM | SW-620 > 100 µM | SK-OV-3 > 100 µM | CAKI-1 > 100 µM | DMS-273 > 100 µM | SNB-19 > 100 µM | K562 > 100 µM | OVCAR-5 > 100 µM | DMS-114 > 100 µM | OVCAR-3 > 100 µM | RPMI-8226 > 100 µM | LOX IMVI > 100 µM | A498 > 100 µM | HCT-116 > 100 µM | NCI-H460 > 100 µM | SK-MEL-2 > 100 µM | SN12C > 100 µM
> 100 µM: HCT-15

COc1ccc2c(c1)[n+]([O-])c(-c1ccc(OC)c(OC)c1)c(N)[n+]2[O-]
inactive: NCI-H522 15.9 µM | HL-60 53.2 µM | M19-MEL 54.6 µM | OVCAR-8 > 100 µM | EKVX > 100 µM | KM-20L2 42 µM | OVCAR-4 > 100 µM | SNB-75 > 100 µM | MOLT-4 78.5 µM | NCI-H23 21.2 µM | UACC-257 31 µM | UACC-62 31.1 µM | SF-295 67.1 µM | UO-31 > 100 µM | CCRF-CEM 84.1 µM | A549 > 100 µM | KM12 98.2 µM | HCC 2998 > 100 µM | SF-539 29.4 µM | TK-10 > 100 µM | HOP-62 > 100 µM | SF-268 35.2 µM | M14 57.4 µM | SK-MEL-5 32.7 µM | IGROV-1 > 100 µM | SNB-78 95.3 µM | HT-29 52.1 µM | ACHN 51.3 µM | SK-MEL-28 25.4 µM | U-251 68.7 µM | LXFL 529 49.8 µM | 786-0 > 100 µM | XF498 > 100 µM | NCI-H226 > 100 µM | Malme-3M 46.3 µM | DLD-1 78.9 µM | COLO 205 18.7 µM | HOP-18 43.7 µM | SW-620 > 100 µM | SK-OV-3 > 100 µM | CAKI-1 32.1 µM | DMS-273 61.5 µM | SNB-19 83.2 µM | K562 72.1 µM | OVCAR-5 > 100 µM | DMS-114 34.1 µM | OVCAR-3 > 100 µM | RPMI-8226 > 100 µM | LOX IMVI > 100 µM | A498 > 100 µM | NCI-H460 49.4 µM | SK-MEL-2 92.3 µM | SN12C 68.9 µM
37.2 µM: HCT-15

[N-]=[N+]=NCC(O)Cn1cnc2c(NC(=O)c3ccccc3)ncnc21 (stereo not given)
inactive: NCI-H522 > 100 µM | HL-60 > 100 µM | M19-MEL > 100 µM | OVCAR-8 > 100 µM | EKVX > 100 µM | KM-20L2 > 100 µM | OVCAR-4 > 100 µM | SNB-75 > 100 µM | MOLT-4 > 100 µM | NCI-H23 > 100 µM | UACC-257 > 100 µM | UACC-62 > 100 µM | SF-295 > 100 µM | UO-31 > 100 µM | CCRF-CEM > 100 µM | A549 > 100 µM | KM12 > 100 µM | HCC 2998 > 100 µM | SF-539 > 100 µM | TK-10 > 100 µM | HOP-62 > 100 µM | SF-268 > 100 µM | M14 > 100 µM | RXF 393 > 100 µM | SK-MEL-5 > 100 µM | IGROV-1 > 100 µM | SNB-78 > 100 µM | HT-29 > 100 µM | ACHN > 100 µM | SK-MEL-28 > 100 µM | U-251 > 100 µM | LXFL 529 > 100 µM | 786-0 41.8 µM | XF498 > 100 µM | NCI-H226 > 100 µM | Malme-3M > 100 µM | DLD-1 > 100 µM | COLO 205 27.8 µM | HOP-18 > 100 µM | HOP-92 > 100 µM | SW-620 43.8 µM | CAKI-1 > 100 µM | DMS-273 64.4 µM | SNB-19 > 100 µM | K562 79.4 µM | OVCAR-5 > 100 µM | DMS-114 67.1 µM | RPMI-8226 > 100 µM | LOX IMVI > 100 µM | A498 > 100 µM | HCT-116 > 100 µM | NCI-H460 > 100 µM | SK-MEL-2 > 100 µM | SN12C > 100 µM
> 100 µM: HCT-15

CC#CC(OCC)(OCC)OCC
inactive: NCI-H522 53.2 µM | HL-60 > 100 µM | M19-MEL > 100 µM | OVCAR-8 > 100 µM | EKVX > 100 µM | KM-20L2 > 100 µM | OVCAR-4 > 100 µM | SNB-75 > 100 µM | MOLT-4 > 100 µM | NCI-H23 > 100 µM | UACC-257 > 100 µM | UACC-62 > 100 µM | SF-295 > 100 µM | UO-31 > 100 µM | CCRF-CEM > 100 µM | A549 > 100 µM | KM12 > 100 µM | HCC 2998 > 100 µM | SF-539 > 100 µM | TK-10 > 100 µM | HOP-62 > 100 µM | SF-268 > 100 µM | M14 > 100 µM | RXF 393 > 100 µM | SK-MEL-5 > 100 µM | SR > 100 µM | IGROV-1 > 100 µM | SNB-78 > 100 µM | HT-29 > 100 µM | ACHN > 100 µM | SK-MEL-28 > 100 µM | U-251 > 100 µM | LXFL 529 > 100 µM | 786-0 > 100 µM | XF498 > 100 µM | NCI-H226 > 100 µM | Malme-3M > 100 µM | DLD-1 > 100 µM | COLO 205 57.1 µM | HOP-18 > 100 µM | HOP-92 > 100 µM | SK-OV-3 > 100 µM | CAKI-1 > 100 µM | DMS-273 20.6 µM | SNB-19 > 100 µM | K562 > 100 µM | OVCAR-5 > 100 µM | DMS-114 25.8 µM | OVCAR-3 > 100 µM | RPMI-8226 > 100 µM | LOX IMVI 18.9 µM | A498 > 100 µM | HCT-116 > 100 µM | NCI-H460 81.8 µM | SK-MEL-2 > 100 µM | SN12C > 100 µM
39.1 µM: HCT-15
